In data set [1] the test system is cell death-activated reporter construct. Briefly: Counter screen using a cell death-activated reporter construct (constitutive gene expression). The conditions noted are these: for observed toxicity or efficacy in antiviral and counterscreen assays: antiviral reporter assay and counterscreen, tested up to 50 uM. (The purpose of a counterscreen is to sort out artefacts and off-target activity.)

For data set [2], the system named is liver-derived HepG2 cells.
In a further data set the test system is influenza A. Format: cell-based.
Data set [3] has as its system H3N2 serotype A/Aichi/2/68. Briefly: In vitro viral propagation in MDCK cells, read by hemagglutination assay. Format: cell-based, influenza A/Aichi/2/68 (H3N2). The note with it: in vitro infection.
The test system of data set [4] is primary renal proximal tubule epithelial cells (RPTEC).
The test system of data set [5] is influenza A/Puerto Rico/8/34. Nature of the data set: In vivo survival study in infected Balb/C mice. The conditions noted are these: day 7 post-infection, 2×LD50 challenge. The method, then: In Vivo Survival Studies: Groups of 5 Balb/C mice ([…]) were weighed prior to the start of study and injected intravenously at the base of the tail with formulations containing A0435 at doses of 3.17, 1, or 0 mg/kg in phosphate buffered saline containing 3% w/v mouse serum albumin. Four hours later, these mice were challenged intranasally with 2×LD50 of influenza A/Puerto Rico/8/34 under anesthesia. Identical doses of A0435 were administered 24 and 48 hours after the initial dose administration and animal weights were monitored daily. Surviving animals were defined as those who maintained 70% or more of their starting weight.

The test system of data set [6] is influenza A/Puerto Rico/8/34 (H1N1) virus. Briefly: In vitro viral propagation in MDCK cells, read by chicken red blood cell hemagglutination assay. Format: cell-based. The conditions noted are these: MDCK cells pre-incubated with compound; supernatants after 18-20 hour incubation.
Data set [7] relates to influenza A/WS/1933 (H1N1). Briefly: In vitro viral propagation in MDCK cells, read by hemagglutination assay. The format is cell-based. The conditions noted are these: in vitro infection.
Data set [8] deals with influenza A RNA-dependent RNA polymerase (RdRP) (Influenza A virus, UniProt P03428+P03431+P03433).

Consider `Clc1ccc(-c2cc3nc4c(c(NCCc5ccccn5)n3n2)CCCC4)cc1` [A0442, 2-(4-chlorophenyl)-N-(2-(pyridin-2-yl)ethyl)-5,6,7,8-tetrahydropyrazolo[5,1-b]quinazolin-9-amine], for which the “observed toxicity or efficacy in antiviral and counterscreen assays” value (from here on “observed toxicity or efficacy”) in [1] is >10 uM (toxic to both antiviral and counterscreen at 50 uM). `CCc1c(C)nc2cc(-c3ccc(OC)c(OC)c3)nn2c1NCCc1ccccn1` [A0435]: the tolerability in cells result in [2] and in data set [4] was “well-tolerated” throughout. In the data set on influenza A, the “cytopathic effects in infected cells” value is “little to no signs of the cytopathic effects”. Further, the inhibition of virus entry in [3] and in data set [7] was “significantly inhibited” in each case. In addition, the “inhibitory impact on the level of constitutive gene expression in the counter-screen assay” value in [1] (dose titration) was “no visible inhibitory impact”. The animals surviving infection in data set [5] (1 mg/kg intravenous) was 2/5; in data set [5] (3.17 mg/kg intravenous), 3/5. The “concentration showing significant antiviral activity (hemagglutination assay)” value in data set [6] was more than 4 µM. On to `CCc1c(C)nc2cc(-c3ccc(OC)c(OC)c3)nn2c1NCCc1ccc(F)cc1` [A0440, 2-(3,4-dimethoxyphenyl)-6-ethyl-N-(4-fluorophenethyl)-5-methylpyrazolo[1,5-a]pyrimidin-7-amine], for which the “observed toxicity or efficacy” value in data set [1] is >50 µM (no observed toxicity or efficacy in either assay tested). On the same count and under the same terms, then `COc1ccc(-c2cc3nc(-c4ccccc4)cc(NCc4ccccc4C)n3n2)cc1OC` [A0528, 2-(3,4-dimethoxyphenyl)-N-(2-methylbenzyl)-5-phenylpyrazolo[1,5-a]pyrimidin-7-amine], with >50 µM (no observed toxicity or efficacy in either assay tested). For `COc1ccc(-c2cc3nc(C)c(C)c(N4CCCC4)n3n2)cc1OC` [A0443, 2-(3,4-dimethoxyphenyl)-5,6-dimethyl-7-(pyrrolidin-1-yl)pyrazolo[1,5-a]pyrimidine], the “observed toxicity or efficacy” value in data set [1] was >50 µM (no observed toxicity or efficacy in either assay tested).

Consider `COc1ccc(-c2cc3nc(C)cc(NCc4ccc5c(c4)OCO5)n3n2)cc1` [A0530, N-(benzo[d][1,3]dioxol-5-ylmethyl)-2-(4-methoxyphenyl)-5-methylpyrazolo[1,5-a]pyrimidin-7-amine], for which the “observed toxicity or efficacy” value in data set [1] was >50 µM (no observed toxicity or efficacy in either assay tested). Same read-out and setting: to `CCc1c(C)nc2cc(-c3ccc(F)cc3)nn2c1NCCc1ccccn1` [A0436, 6-ethyl-2-(4-fluorophenyl)-5-methyl-N-(2-(pyridin-2-yl)ethyl)pyrazolo[1,5-a]pyrimidin-7-amine] belongs >10 uM (toxic to both antiviral and counterscreen at 50 uM); to `Cc1ccc(-c2cc3nc4c(c(NCCc5ccccn5)n3n2)CCC4)cc1` [A0437, N-(2-(pyridin-2-yl)ethyl)-2-p-tolyl-6,7-dihydro-5H-cyclopenta[d]pyrazolo[1,5-a]pyrimidin-8-amine], >50 µM (no observed toxicity or efficacy in either assay tested).

As to `COc1ccc(-c2cc3nc(C)cc(NCc4ccccc4)n3n2)cc1` [A0548, N-benzyl-2-(4-methoxyphenyl)-5-methylpyrazolo[1,5-a]pyrimidin-7-amine], the “observed toxicity or efficacy” value in [1] was >50 µM (no observed toxicity or efficacy in either assay tested). On the same count and under the same terms, to `Fc1ccc(-c2cc3nc4c(c(NCCc5ccccn5)n3n2)CCCC4)cc1` [A0441, 2-(4-fluorophenyl)-N-(2-(pyridin-2-yl)ethyl)-5,6,7,8-tetrahydropyrazolo[5,1-b]quinazolin-9-amine] belongs >10 uM (toxic to both antiviral and counterscreen at 50 uM). Still for that read-out and setting: to `Cc1cc(NCC(O)c2cccc(O)c2)n2nc(-c3cccc(F)c3)cc2n1` (centres unmarked) [A0532, 3-(2-(2-(3-fluorophenyl)-5-methylpyrazolo[1,5-a]pyrimidin-7-ylamino)-1-hydroxyethyl)phenol] belongs >50 µM (no observed toxicity or efficacy in either assay tested).

As for `CCc1c(C)nc2cc(-c3cc(OC)cc(OC)c3)nn2c1NCCc1ccccc1` [A0527, 2-(3,5-dimethoxyphenyl)-6-ethyl-5-methyl-N-phenethylpyrazolo[1,5-a]pyrimidin-7-amine], the “observed toxicity or efficacy” value in data set [1] was >50 µM (no observed toxicity or efficacy in either assay tested). The same measure, in the same setting: then `CCc1c(C)nc2cc(-c3ccc(OC)c(OC)c3)nn2c1NCCc1ccc(OC)c(OC)c1` [A0438, N-(3,4-dimethoxyphenethyl)-2-(3,4-dimethoxyphenyl)-6-ethyl-5-methylpyrazolo[1,5-a]pyrimidin-7-amine], with >10 uM (toxic to both antiviral and counterscreen at 50 uM); and `COc1cc(OC)cc(-c2cc3nc(C)cc(NCC(C)c4ccccc4)n3n2)c1` (centres unmarked) [A0525, 2-(3,5-dimethoxyphenyl)-5-methyl-N-(2-phenylpropyl)pyrazolo[1,5-a]pyrimidin-7-amine], with >50 µM (no observed toxicity or efficacy in either assay tested). Turning to `COc1ccc(-c2cc3c(=O)[nH]nc(SCc4ccc5c(c4)OCO5)n3n2)cc1OC` [A0551, 7-(benzo[d][1,3]dioxol-5-ylmethylthio)-2-(3,4-dimethoxyphenyl)pyrazolo [1,5-d][1,2,4]triazin-4(5H)-one], the “observed toxicity or efficacy” value in [1] was >50 µM (no observed toxicity or efficacy in either assay tested). Same read-out and setting: to `CCc1c(C)nc2cc(-c3ccc(OC)c(OC)c3)nn2c1NCc1cc(OC)ccc1OC` [A0526, N-(2,5-dimethoxybenzyl)-2-(3,4-dimethoxyphenyl)-6-ethyl-5-methylpyrazolo[1,5-a]pyrimidin-7-amine] belongs >50 µM (no observed toxicity or efficacy in either assay tested). Take `Cc1cc(NC(CO)C(O)c2ccccc2)n2nc(-c3cccc(F)c3)cc2n1` (centres unmarked) [A0531, 2-(2-(3-fluorophenyl)-5-methylpyrazolo[1,5-a]pyrimidin-7-ylamino)-1-phenylpropane-1,3-diol]: the “observed toxicity or efficacy” value in [1] is >50 µM (no observed toxicity or efficacy in either assay tested).

For `COc1ccc(-c2c(C)nn3c(N4CCc5ccccc5C4)cc(C)nc23)cc1OC` [A0550, 2-(3-(3,4-dimethoxyphenyl)-2,5-dimethylpyrazolo[1,5-a]pyrimidin-7-yl)-1,2,3,4-tetrahydroisoquinoline], the “observed toxicity or efficacy” value in data set [1] was >50 µM (no observed toxicity or efficacy in either assay tested).

With `COc1ccc(-c2cc3c(=O)[nH]nc(SCc4ccccc4Cl)n3n2)cc1OC` [A0553, 7-(2-chlorobenzylthio)-2-(3,4-dimethoxyphenyl)pyrazolo [1,5-d][1,2,4]triazin-4(5H)-one], the “observed toxicity or efficacy” value in data set [1] was >50 µM (no observed toxicity or efficacy in either assay tested). Same read-out and setting: to `COc1ccc(-c2cc3nccc(NCc4ccccc4OC)n3n2)cc1` [A0547, N-(2-methoxybenzyl)-2-(4-methoxyphenyl)pyrazolo[1,5-a]pyrimidin-7-amine] belongs >50 µM (no observed toxicity or efficacy in either assay tested).

`CCc1c(C)nc2cc(-c3ccc(OC)c(OC)c3)nn2c1NCCc1ccccc1C` [A0439]: the “concentration showing significant antiviral activity (hemagglutination assay)” value in [6] is more than 7.5 µM. In addition, in [8], the “toxicity in the reporter assay” value is on record as “increased toxicity at higher doses due to precipitation”. Take `COc1ccc(-c2cc3nc4c(c(NCc5ccccc5F)n3n2)CCCC4)cc1` [A0529, N-(2-fluorobenzyl)-2-(4-methoxyphenyl)-5,6,7,8-tetrahydropyrazolo[5,1-b]quinazolin-9-amine]: the “observed toxicity or efficacy” value in data set [1] was >50 µM (no observed toxicity or efficacy in either assay tested). Still for that read-out and setting: to `CCOc1ccc(-c2cc3c(SCc4cccc(C)c4)nccn3n2)cc1` [A0552, 2-(4-ethoxyphenyl)-4-(3-methylbenzylthio)pyrazolo [1,5-a]pyrazine] belongs >50 µM (no observed toxicity or efficacy in either assay tested); to `CCc1c(C)nc2cc(-c3cc(C)on3)nn2c1NCCc1ccccn1` [A0445, 6-ethyl-5-methyl-2-(5-methylisoxazol-3-yl)-N-(2-(pyridin-2-yl)ethyl)pyrazolo[1,5-a]pyrimidin-7-amine], >50 µM (no observed toxicity or efficacy in either assay tested). On the same count and under the same terms, then `COc1ccc(-c2c(C)nn3c(NCC(C)c4ccccc4)cc(C)nc23)cc1OC` (centres unmarked) [A0549, 3-(3,4-dimethoxyphenyl)-2,5-dimethyl-N-(2-phenylpropyl)pyrazolo[1,5-a]pyrimidin-7-amine], with >50 µM (no observed toxicity or efficacy in either assay tested); and `COc1ccc(-c2cc3nc4c(c(NCCc5cccnc5)n3n2)CCC4)cc1OC` [A0444, 2-(3,4-dimethoxyphenyl)-N-(2-(pyridin-3-yl)ethyl)-6,7-dihydro-5H-cyclopenta[d]pyrazolo[1,5-a]pyrimidin-8-amine], with >10 uM (toxic to both antiviral and counterscreen at 50 uM).
